Where a name gives a salt, the structure may show the parent alone. Read-outs that look alike come from different tables or passages of the source.
Target: T1, mutant CFTR (Homo sapiens, UniProt P13569, DEL508-508)
T1 construct: expressed in transfected cells
Experiment: Fluorescence (HS-YFP) assay for CFTR activity, corrector assay
Format: cell-based
Details: CFBE41o- and FRT cells with stable expression of mutant CFTR

T1 sequence (P13569 with tags, fused parts or gaps DEL508-508): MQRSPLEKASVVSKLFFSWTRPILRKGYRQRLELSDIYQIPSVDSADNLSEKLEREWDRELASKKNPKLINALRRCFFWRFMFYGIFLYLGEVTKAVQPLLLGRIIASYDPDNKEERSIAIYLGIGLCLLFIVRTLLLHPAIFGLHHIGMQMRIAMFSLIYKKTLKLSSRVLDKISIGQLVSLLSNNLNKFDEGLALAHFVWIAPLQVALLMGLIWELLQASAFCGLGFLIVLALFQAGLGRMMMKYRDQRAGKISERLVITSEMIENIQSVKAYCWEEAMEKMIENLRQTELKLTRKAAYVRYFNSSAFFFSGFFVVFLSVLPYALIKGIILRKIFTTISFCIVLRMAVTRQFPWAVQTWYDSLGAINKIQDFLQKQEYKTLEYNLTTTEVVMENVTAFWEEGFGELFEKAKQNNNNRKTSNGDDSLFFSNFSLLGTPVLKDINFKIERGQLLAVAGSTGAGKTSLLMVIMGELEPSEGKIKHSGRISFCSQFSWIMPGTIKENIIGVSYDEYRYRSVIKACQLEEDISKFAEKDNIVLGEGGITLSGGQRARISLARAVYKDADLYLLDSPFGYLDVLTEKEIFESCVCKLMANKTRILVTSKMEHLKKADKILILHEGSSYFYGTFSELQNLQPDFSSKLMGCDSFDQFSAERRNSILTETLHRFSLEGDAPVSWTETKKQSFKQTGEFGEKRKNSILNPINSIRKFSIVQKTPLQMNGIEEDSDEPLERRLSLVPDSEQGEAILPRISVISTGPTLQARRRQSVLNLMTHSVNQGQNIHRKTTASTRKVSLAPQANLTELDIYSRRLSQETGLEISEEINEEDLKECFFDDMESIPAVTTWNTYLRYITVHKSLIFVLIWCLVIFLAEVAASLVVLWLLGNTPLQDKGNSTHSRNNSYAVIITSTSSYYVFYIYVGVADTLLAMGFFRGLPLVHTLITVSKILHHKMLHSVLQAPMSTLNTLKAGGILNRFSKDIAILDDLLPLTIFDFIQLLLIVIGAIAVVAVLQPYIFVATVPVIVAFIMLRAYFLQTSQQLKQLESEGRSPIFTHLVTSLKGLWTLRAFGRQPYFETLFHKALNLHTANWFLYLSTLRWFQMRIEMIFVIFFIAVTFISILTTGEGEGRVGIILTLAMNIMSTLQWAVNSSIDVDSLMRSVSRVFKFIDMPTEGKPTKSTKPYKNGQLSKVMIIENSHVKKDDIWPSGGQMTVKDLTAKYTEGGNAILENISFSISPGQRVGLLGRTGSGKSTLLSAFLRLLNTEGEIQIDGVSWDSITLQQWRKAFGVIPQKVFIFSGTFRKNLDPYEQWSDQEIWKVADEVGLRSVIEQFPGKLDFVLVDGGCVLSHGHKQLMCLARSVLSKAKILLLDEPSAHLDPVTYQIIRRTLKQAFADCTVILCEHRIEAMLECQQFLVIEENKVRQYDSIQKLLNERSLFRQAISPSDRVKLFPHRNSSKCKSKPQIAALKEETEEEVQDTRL

Compound | EC50 (read-out: activity (EC50)) [nM] | EC50 (activity (EC50)) [nM]
CN(C(=O)c1cccc(-n2nc(C(F)(F)F)c3c2C(Oc2ccc(C(=O)O)nn2)CCC3)c1)c1ccc2c(c1)OC(F)(F)O2 (racemic) [Compound 302, 6-[[1-[3-[(2,2-Difluoro-1,3-benzodioxol-5-yl)-methyl-carbamoyl]phenyl]-3-(trifluoromethyl)-4,5,6,7-tetrahydroindazol-7-yl]oxy]pyridazine-3-carboxylic acid] | > 2000 | –
Cc1n[nH]c(C)c1S(=O)(=O)N1[C@H]2CC[C@@H]1c1c(C(F)(F)F)nn(-c3cccc(C(=O)N(C)c4ccc5c(c4)OCO5)c3)c1C2 (single isomer, unassigned) [Compound 130, (4R,7S)- or (4S,7R)—N-(Benzo[d][1,3]dioxol-5-yl)-3-(9-((3,5-dimethyl-1H-pyrazol-4-yl)sulfonyl)-3-(trifluoromethyl)-5,6,7,8-tetrahydro-4,7-epiminocyclohepta[c]pyrazol-1(4H)-yl)-N-methylbenzamide] | < 1000 | –
CN(C(=O)c1cccc(-n2nc(C(F)(F)F)c3c2C(Oc2ncc(C(=O)O)cn2)COC3)c1)c1cnc2c(c1)CCC2 (racemic) [Compound 305, (rac)-2-[[1-[3-[6,7-dihydro-5H-cyclopenta[b]pyridin-3-yl(methyl)carbamoyl]phenyl]-3-(trifluoro-methyl)-6,7-dihydro-4H-pyrano[4,3-c]pyrazol-7-yl]oxy]pyrimidine-5-carboxylic acid] | < 1000 | –
CN(C(=O)c1cccc(-n2nc(C(F)(F)F)c3c2C(Oc2ccc(C(=O)O)cn2)CCC3)c1)c1ccc2c(c1)OC(F)(F)O2 (stereo not shown) [Compound 180, 6-[[1-[3-[(2,2-Difluoro-1,3-benzodioxol-5-yl)-methyl-carbamoyl]phenyl]-3-(trifluoromethyl)-4,5,6,7-tetrahydroindazol-7-yl]oxy]pyridine-3-carboxylic acid] | < 1000 | –
CN(C(=O)c1cccc(-n2nc(C(F)(F)F)c3c2C(Oc2ccc(C(=O)O)cc2)CCC3)c1)c1ccc2c(c1)OC(F)(F)O2 (single isomer, unassigned) [Compound 151, (S) or (R)-4-[[1-[3-[(2,2-Difluoro-1,3-benzodioxol-5-yl)-methyl-carbamoyl]phenyl]-3-(trifluoromethyl)-4,5,6,7-tetrahydroindazol-7-yl]oxy]benzoic acid] | < 1000 | –
CN(C(=O)c1cccc(-n2nc(C(F)(F)F)c3c2CCN(S(C)(=O)=O)C3)c1)c1ccc2c(c1)OCO2 [Compound 006, N-(1,3-Benzodioxol-5-yl)-N-methyl-3-[5-methylsulfonyl-3-(trifluoromethyl)-6,7-dihydro-4H-pyrazolo[4,3-c]pyridin-1-yl]benzamide] | < 1000 | –
CN(C(=O)c1cccc(-n2nc(C(F)(F)F)c3c2C[C@@H]2CC[C@H]3N2C2CCC2)c1)c1ccc2c(c1)OCO2 (single isomer, unassigned) [Compound 131, (4R,7S)- or (4S,7R)—N-(Benzo[d][1,3]dioxol-5-yl)-3-(9-cyclobutyl-3-(trifluoromethyl)-5,6,7,8-tetrahydro-4,7-epiminocyclohepta[c]pyrazol-1(4H)-yl)-N-methylbenzamide] | < 1000 | –
CN(C(=O)c1cccc(-n2nc(C(F)(F)F)c3c2C(Oc2ccc(C(=O)O)cc2)CCC3)c1)c1cccc(OC(F)F)c1 (racemic) [Compound 266, 4-[[1-[3-[[3-(Difluoromethoxy)phenyl]-methyl-carbamoyl]phenyl]-3-(trifluoromethyl)-4,5,6,7-tetrahydroindazol-7-yl]oxy]benzoic acid] | 1000 to 2000 | –
CN(C(=O)c1cccc(-n2nc(C(F)(F)F)c3c2C(Oc2ccc(C(=O)O)cc2)COC3)c1)c1ccnc(OC(F)F)c1 (racemic) [Compound 270, 4-[[1-[3-[[2-(Difluoromethoxy)-4-pyridyl]-methyl-carbamoyl]phenyl]-3-(trifluoromethyl)-6,7-dihydro-4H-pyrano[4,3-c]pyrazol-7-yl]oxy]benzoic acid] | < 1000 | –
COc1ncc(NC(=O)c2cccc(-n3nc(C(F)(F)F)c4c3CCN(C(=O)C(C)(C)C)C4)c2)cn1 [Compound 081, 3-[5-(2,2-Dimethylpropanoyl)-3-(trifluoromethyl)-6,7-dihydro-4H-pyrazolo[4,3-c]pyridin-1-yl]-N-(2-methoxypyrimidin-5-yl)benzamide] | > 2000 | –
COC(=O)c1ccc(C(=O)N2CCc3c(c(C(F)(F)F)nn3-c3cccc(C(=O)N(C)c4ccc5c(c4)OCO5)c3)C2)cc1 [Compound 042, Methyl 4-[1-[3-[1,3-benzodioxol-5-yl(methyl)carbamoyl]phenyl]-3-(trifluoromethyl)-6,7-dihydro-4H-pyrazolo[4,3-c]pyridine-5-carbonyl]benzoate] | < 1000 | –
CN(C(=O)c1cccc(-n2nc(C(F)(F)F)c3c2CCCC3)c1)c1ccc2c(c1)OCO2 [Compound 005, N-(1,3-Benzodioxol-5-yl)-N-methyl-3-[3-(trifluoromethyl)-4,5,6,7-tetrahydroindazol-1-yl]benzamide] | < 1000 | –
CN(C(=O)c1cccc(-n2nc(C(F)(F)F)c3c2C(Oc2ccc(C(=O)O)cc2)CCC3)c1)c1ccc2c(c1)S(=O)(=O)CC2 (racemic) [Compound 303, 4-[[1-[3-[(1,1-Dioxo-2,3-dihydrobenzothiophen-6-yl)-methyl-carbamoyl]phenyl]-3-(trifluoromethyl)-4,5,6,7-tetrahydroindazol-7-yl]oxy]benzoic acid] | > 2000 | –
CN(C(=O)c1cccc(-n2nc(C(F)(F)F)c3c2C(Oc2ccc(CC(=O)O)cc2)CCC3)c1)c1ccc2c(c1)OC(F)(F)O2 (racemic) [Compound 318, 2-[4-[[1-[3-[(2,2-Difluoro-1,3-benzodioxol-5-yl)-methyl-carbamoyl]phenyl]-3-(trifluoromethyl)-4,5,6,7-tetrahydroindazol-7-yl]oxy]phenyl]acetic acid] | < 1000 | –
COc1ccc(N(C)C(=O)c2cccc(-n3nc(C(F)(F)F)c4c3C(Oc3ccc(C(=O)O)cc3)CCC4)c2)cc1OC (racemic) [Compound 311, 4-[[1-[3-[(3,4-Dimethoxyphenyl)-methyl-carbamoyl]phenyl]-3-(trifluoromethyl)-4,5,6,7-tetrahydroindazol-7-yl]oxy]benzoic acid] | > 2000 | –
COc1ccc(N(C)C(=O)c2cccc(-n3nc(C(F)(F)F)c4c3CCN(C(=O)C(C)(C)C)C4)c2)cn1 [Compound 085, 3-[5-(2,2-Dimethylpropanoyl)-3-(trifluoromethyl)-6,7-dihydro-4Hpyrazolo[4,3-c]pyridin-1-yl]-N-(6-methoxy-3-pyridyl)-N-methylbenzamide] | < 1000 | –
COc1ncc(N(C)C(=O)c2cccc(-n3nc(C(F)(F)F)c4c3C(Oc3ccc(C(=O)O)cc3)CCC4)c2)cn1 (stereo not shown) [Compound 168, 4-[[1-[3-[(2-Methoxypyrimidin-5-yl)-methyl-carbamoyl]phenyl]-3-(trifluoromethyl)-4,5,6,7-tetrahydroindazol-7-yl]oxy]benzoic acid] | < 1000 | –
Cc1nc2cc(F)c(N(C)C(=O)c3cccc(-n4nc(C(F)(F)F)c5c4CCN(C(=O)OC(C)(C)C)C5)c3)cc2o1 [Compound 036, tert-Butyl 1-[3-[(5-fluoro-2-methyl-1,3-benzoxazol-6-yl)-methylcarbamoyl]phenyl]-3-(trifluoromethyl)-6,7-dihydro-4H-pyrazolo[4,3-c]pyridine-5-carboxylate] | < 1000 | –
Cc1cc2ncc(N(C)C(=O)c3cccc(-n4nc(C(F)(F)F)c5c4C(Oc4ccc(C(=O)O)cc4)CCC5)c3)cn2n1 (stereo not shown) [Compound 174, 4-[[1-[3-[Methyl-(2-methylpyrazolo[1,5-a]pyrimidin-6-yl)carbamoyl]phenyl]-3-(trifluoromethyl)-4,5,6,7-tetrahydroindazol-7-yl]oxy]benzoic acid] | < 1000 | –
CN(C(=O)c1cccc(-n2nc(C(F)(F)F)c3c2CCN(C[C@@H]2COC(C)(C)O2)C3)c1)c1ccc2c(c1)OCO2 [Compound 013, N-(1,3-Benzodioxol-5-yl)-3-[5-[[(4R)-2,2-dimethyl-1,3-dioxolan-4-yl]methyl]-3-(trifluoromethyl)-6,7-dihydro-4H-pyrazolo[4,3-c]pyridin-1-yl]-N-methyl-benzamide] | < 1000 | –
CN(C(=O)c1cccc(-n2nc(C(F)(F)F)c3c2CNCC3)c1)c1ccc2c(c1)OCO2 [Compound 038, N-(1,3-Benzodioxol-5-yl)-N-methyl-3-[3-(trifluoromethyl)-4,5,6,7-tetrahydropyrazolo[3,4-c]pyridin-1-yl] benzamide hydrochloride] | < 1000 | –
CN(C(=O)c1cccc(-n2nc(C(F)(F)F)c3c2C(Oc2ccc(C(=O)O)cc2)CCC3)c1)c1ccc2c(c1)OCC2 (single isomer, unassigned) [Compound 279, (S) or (R)-4-[[1-[3-[2,3-dihydrobenzofuran-6-yl(methyl)carbamoyl]phenyl]-3-(trifluoromethyl)-4,5,6,7-tetrahydroindazol-7-yl]oxy]benzoic acid] | < 1000 | –
CN(C(=O)c1cccc(-n2nc(C(F)(F)F)c3c2C[C@@H]2CC[C@H]3N2C)c1)c1ccc2c(c1)OCO2 (single isomer, unassigned) [Compound 051, (4S,7R)- or (4R,7S)—N-(Benzo[d][1,3]dioxol-5-yl)-N-methyl-3-(9-methyl-3-(trifluoromethyl)-5,6,7,8-tetrahydro-4,7-epiminocyclohepta[c]pyrazol-1(4H)-yl)benzamide] | – | 1000 to 2000
CN(C(=O)c1cccc(-n2nc(C(F)(F)F)c3c2C(Oc2ccc(C(=O)O)cc2)CCC3)c1)c1cnc2c(c1)CCC2 (racemic) [Compound 258, (rac)-4-[[1-[3-[6,7-dihydro-5H-Cyclopenta[b]pyridin-3-yl(methyl)carbamoyl]phenyl]-3-(trifluoromethyl)-4,5,6,7-tetrahydroindazol-7-yl]oxy]benzoic acid] | < 1000 | –
Cc1nc2ncc(N(C)C(=O)c3cccc(-n4nc(C(F)(F)F)c5c4C(Oc4ccc(C(=O)O)cc4)CCC5)c3)cc2o1 (stereo not shown) [Compound 159, 4-[[1-[3-[Methyl-(2-methyloxazolo[4,5-b]pyridin-6-yl)carbamoyl]phenyl]-3-(trifluoromethyl)-4,5,6,7-tetrahydroindazol-7-yl]oxy]benzoic acid] | 1000 to 2000 | –

Source: patent publication US10968225B2, “Compounds and compositions for the treatment of cystic fibrosis” (Fondazione Istituto Italiano Di Tecnologia, priority 2017, dated 2021)
